Results: BigSolDB 2.1

## O=C1c2ccccc2C(=O)N1O
In 1,4-dioxane, 288.15 K
  solubility (mole fraction): 0.0181
In 1,4-dioxane, 293.15 K
  solubility (mole fraction): 0.0204
In 1,4-dioxane, 298.15 K
  solubility (mole fraction): 0.0231
In 1,4-dioxane, 303.15 K
  solubility (mole fraction): 0.0255
In 1,4-dioxane, 308.15 K
  solubility (mole fraction): 0.0286
In 1,4-dioxane, 313.15 K
  solubility (mole fraction): 0.0319
In 1,4-dioxane, 318.15 K
  solubility (mole fraction): 0.0354
In 1,4-dioxane, 323.15 K
  solubility (mole fraction): 0.0393
In 2-ethoxyethanol, 278.15 K
  solubility (mole fraction): 0.016
In 2-ethoxyethanol, 283.15 K
  solubility (mole fraction): 0.0182
In 2-ethoxyethanol, 288.15 K
  solubility (mole fraction): 0.0207
In 2-ethoxyethanol, 293.15 K
  solubility (mole fraction): 0.0233
In 2-ethoxyethanol, 298.15 K
  solubility (mole fraction): 0.026
In 2-ethoxyethanol, 303.15 K
  solubility (mole fraction): 0.0294
In 2-ethoxyethanol, 308.15 K
  solubility (mole fraction): 0.0327
In 2-ethoxyethanol, 313.15 K
  solubility (mole fraction): 0.0364
In 2-ethoxyethanol, 318.15 K
  solubility (mole fraction): 0.0404
In 2-ethoxyethanol, 323.15 K
  solubility (mole fraction): 0.0447
In 2-methoxyethanol, 278.15 K
  solubility (mole fraction): 0.0254
In 2-methoxyethanol, 283.15 K
  solubility (mole fraction): 0.028
In 2-methoxyethanol, 288.15 K
  solubility (mole fraction): 0.0311
In 2-methoxyethanol, 293.15 K
  solubility (mole fraction): 0.0346
In 2-methoxyethanol, 298.15 K
  solubility (mole fraction): 0.0381
In 2-methoxyethanol, 303.15 K
  solubility (mole fraction): 0.0421
In 2-methoxyethanol, 308.15 K
  solubility (mole fraction): 0.0466
In 2-methoxyethanol, 313.15 K
  solubility (mole fraction): 0.051
In 2-methoxyethanol, 318.15 K
  solubility (mole fraction): 0.056
In 2-methoxyethanol, 323.15 K
  solubility (mole fraction): 0.062
In acetone, 278.15 K
  solubility (mole fraction): 0.00744
In acetone, 283.15 K
  solubility (mole fraction): 0.00861
In acetone, 288.15 K
  solubility (mole fraction): 0.00981
In acetone, 293.15 K
  solubility (mole fraction): 0.0111
In acetone, 298.15 K
  solubility (mole fraction): 0.0126
In acetone, 303.15 K
  solubility (mole fraction): 0.0144
In acetone, 308.15 K
  solubility (mole fraction): 0.0161
In acetone, 313.15 K
  solubility (mole fraction): 0.0186
In acetone, 318.15 K
  solubility (mole fraction): 0.0202
In acetone, 323.15 K
  solubility (mole fraction): 0.0222
In acetonitrile, 278.15 K
  solubility (mole fraction): 0.00232
In acetonitrile, 283.15 K
  solubility (mole fraction): 0.00268
In acetonitrile, 288.15 K
  solubility (mole fraction): 0.00312
In acetonitrile, 293.15 K
  solubility (mole fraction): 0.0036
In acetonitrile, 298.15 K
  solubility (mole fraction): 0.00414
In acetonitrile, 303.15 K
  solubility (mole fraction): 0.00476
In acetonitrile, 308.15 K
  solubility (mole fraction): 0.00543
In acetonitrile, 313.15 K
  solubility (mole fraction): 0.00618
In acetonitrile, 318.15 K
  solubility (mole fraction): 0.00701
In acetonitrile, 323.15 K
  solubility (mole fraction): 0.0079
In ethanol, 278.15 K
  solubility (mole fraction): 0.00307
In ethanol, 283.15 K
  solubility (mole fraction): 0.00366
In ethanol, 288.15 K
  solubility (mole fraction): 0.00442
In ethanol, 293.15 K
  solubility (mole fraction): 0.00526
In ethanol, 298.15 K
  solubility (mole fraction): 0.00614
In ethanol, 303.15 K
  solubility (mole fraction): 0.00729
In ethanol, 308.15 K
  solubility (mole fraction): 0.00855
In ethanol, 313.15 K
  solubility (mole fraction): 0.01
In ethanol, 318.15 K
  solubility (mole fraction): 0.0117
In ethanol, 323.15 K
  solubility (mole fraction): 0.0138
In ethyl acetate, 278.15 K
  solubility (mole fraction): 0.00214
In ethyl acetate, 283.15 K
  solubility (mole fraction): 0.00252
In ethyl acetate, 288.15 K
  solubility (mole fraction): 0.00301
In ethyl acetate, 293.15 K
  solubility (mole fraction): 0.00353
In ethyl acetate, 298.15 K
  solubility (mole fraction): 0.00399
In ethyl acetate, 303.15 K
  solubility (mole fraction): 0.00465
In ethyl acetate, 308.15 K
  solubility (mole fraction): 0.00541
In ethyl acetate, 313.15 K
  solubility (mole fraction): 0.0062
In ethyl acetate, 318.15 K
  solubility (mole fraction): 0.00705
In ethyl acetate, 323.15 K
  solubility (mole fraction): 0.00807
In methanol, 278.15 K
  solubility (mole fraction): 0.00354
In methanol, 283.15 K
  solubility (mole fraction): 0.00412
In methanol, 288.15 K
  solubility (mole fraction): 0.00484
In methanol, 293.15 K
  solubility (mole fraction): 0.00566
In methanol, 298.15 K
  solubility (mole fraction): 0.00657
In methanol, 303.15 K
  solubility (mole fraction): 0.0078
In methanol, 308.15 K
  solubility (mole fraction): 0.00903
In methanol, 313.15 K
  solubility (mole fraction): 0.0105
In methanol, 318.15 K
  solubility (mole fraction): 0.0123
In methanol, 323.15 K
  solubility (mole fraction): 0.0143
In methyl acetate, 278.15 K
  solubility (mole fraction): 0.00303
In methyl acetate, 283.15 K
  solubility (mole fraction): 0.00342
In methyl acetate, 288.15 K
  solubility (mole fraction): 0.00394
In methyl acetate, 293.15 K
  solubility (mole fraction): 0.00462
In methyl acetate, 298.15 K
  solubility (mole fraction): 0.00528
In methyl acetate, 303.15 K
  solubility (mole fraction): 0.00618
In methyl acetate, 308.15 K
  solubility (mole fraction): 0.00696
In methyl acetate, 313.15 K
  solubility (mole fraction): 0.00794
In methyl acetate, 318.15 K
  solubility (mole fraction): 0.00908
In methyl acetate, 323.15 K
  solubility (mole fraction): 0.0104
In n-propanol, 278.15 K
  solubility (mole fraction): 0.00214
In n-propanol, 283.15 K
  solubility (mole fraction): 0.00259
In n-propanol, 288.15 K
  solubility (mole fraction): 0.00321
In n-propanol, 293.15 K
  solubility (mole fraction): 0.00388
In n-propanol, 298.15 K
  solubility (mole fraction): 0.00467
In n-propanol, 303.15 K
  solubility (mole fraction): 0.00568
In n-propanol, 308.15 K
  solubility (mole fraction): 0.00688
In n-propanol, 313.15 K
  solubility (mole fraction): 0.00834
In n-propanol, 318.15 K
  solubility (mole fraction): 0.00992
In n-propanol, 323.15 K
  solubility (mole fraction): 0.0119
In n-propyl acetate, 278.15 K
  solubility (mole fraction): 0.0017
In n-propyl acetate, 283.15 K
  solubility (mole fraction): 0.00202
In n-propyl acetate, 288.15 K
  solubility (mole fraction): 0.00235
In n-propyl acetate, 293.15 K
  solubility (mole fraction): 0.00281
In n-propyl acetate, 298.15 K
  solubility (mole fraction): 0.00329
In n-propyl acetate, 303.15 K
  solubility (mole fraction): 0.00381
In n-propyl acetate, 308.15 K
  solubility (mole fraction): 0.00442
In n-propyl acetate, 313.15 K
  solubility (mole fraction): 0.00512
In n-propyl acetate, 318.15 K
  solubility (mole fraction): 0.00594
In n-propyl acetate, 323.15 K
  solubility (mole fraction): 0.00679
